Reference: publication PMC12505664, “Enflicoxib for the long-term management of canine osteoarthritis—External validation of a population pharmacokinetic model in dogs with osteoarthritis” (Frontiers in Veterinary Science, 2025)
Where two headings read alike, the source gives them in different places.

Columns and labels:
canine osteoarthritis = system: canine osteoarthritis; design: method as in Salichs et al., Vet Rec. 2022; conditions: Mavacoxib group n=58, ref Salichs et al., Vet Rec. 2022, cited from earlier work
[1] = Plasma levels of enflicoxib and pyrazol metabolite in the 6-month field clinical study (HPLC-MS/MS); assay type: in vivo, client-owned dogs with OA; conditions: for Mean plasma level: oral 8 mg/kg then 4 mg/kg weekly
Protocol: A prospective, multisite, blinded, randomized, placebo-controlled, parallel-group field study was performed in accordance with Good Clinical Practice standards ([16]). The study aimed to confirm the safety and efficacy of enflicoxib treatment of pain and inflammation associated with naturally occurring canine OA in dogs of any breed and sex treated for 6 months. The protocol was approved by the regulatory authorities of both Portugal and Hungary. Written informed consent was obtained from all dog owners prior to enrolment of their dogs. Dogs remained under the care of their owners at home throughout the study.
Before enrolment, all dogs underwent a physical examination, and blood and urine samples were taken. After enrollment, dogs were randomized in a predefined enflicoxib:placebo ratio of 3:1. Enflicoxib was dosed orally at weekly intervals, with an initial dose of 8 mg/kg, followed by once-a-week maintenance doses of 4 mg/kg for a total of 26 weeks. Dogs in the enflicoxib group received Daxocox® tablets (Ecuphar/Animalcare group), while dogs in the placebo group received the same formulation without the active ingredient under the same posology (number of tablets and dosing interval). […] No positive control was included due to difficulties in maintaining blinding with products under different posology during the entire follow-up period.
Two blood samples for popPK analysis were collected from all animals enrolled in the study one on day 44(±2 days)/1.5 months, (similar to the last sample taken in the previous clinical studies), after clinical assessment of pain and lameness and prior to treatment administration and another one at the end of the study on day 189/6 months (±2 days), or individual premature study termination day. Day 189 corresponds to the trough concentration after the 27th weekly administration (PK sample taken at the end of the weekly dosing interval). Meanwhile, day 44 corresponds to a PK sample obtained 2 days after the 7th weekly administration. The veterinary practices had the necessary resources and adequate freezing equipment for the long-term storage of plasma samples. Blood samples were collected into potassium-3-ethylenediaminetetraacetic acid (K3EDTA) labeled tubes, which were immediately centrifuged at ~2,500g for 10 min (at +4 °C whenever possible) to obtain plasma. Once received, plasma was transferred into two labeled propylene tubes (aliquots 1 and 2). Each plasma aliquot was stored frozen at a nominal temperature of −20 (±2) °C until shipment to the Laboratory of analysis Welab Barcelona (Parc Científic de Barcelona, C/Baldiri Reixac 4-12, 08028, Barcelona). The maximum storage time for the samples was 376 days at nominally −20 °C/−80 °C. Considering the long-term stability of enflicoxib and its metabolite in dog plasma samples stored at −20 °C, which spans a minimum of 402 days, the stability of the study samples was guaranteed for the entire duration of the study. Samples were analyzed without information on the treatment allocation (laboratory-blinded study).
Enflicoxib and pyrazol metabolite plasma levels were measured by a previously fully validated high-performance liquid chromatography (HPLC)-method coupled with tandem mass spectrometry (MS/MS) detection as described in Homedes et al. ([4]).

[2] = Maximum a posteriori Bayesian (MAPB) estimation of individual PK parameters in dogs with OA; assay type: in vivo
Source text: As a similar PK behavior between populations was concluded, the same popPK model could be used, and a Bayesian approach was used for the determination of individual enflicoxib and the pyrazol metabolite exposure in osteoarthritic animals.
A maximum a posteriori Bayesian (MAPB) estimation using the post hoc subroutine in NONMEM was used to provide the individual PK parameters in osteoarthritic dogs.
MAPB estimation applied likelihood maximization in the form of minimizing the objective function (minus 2 log likelihood), to estimate individual PK parameters of each dog with OA. In this analysis, the MAPB estimation incorporated both a priori PK information, that is, the established PK model of enflicoxib and the pyrazol metabolite in healthy Beagle dogs, and a posteriori PK data, which corresponds to PK data from osteoarthritic dogs. The individual PK parameters along with individual predicted PK profiles for each dog treated with enflicoxib were calculated by fitting the animal PK dataset, which includes dosing, sampling times, parent and metabolite levels, and covariate information, to the established population enflicoxib and the pyrazol metabolite PK model in healthy Beagle dogs.
The maximum a posteriori Bayesian (MAPB) estimation was applied to provide the most likely individual PK profile for each dog with OA, using the “POSTHOC” subroutine and $ESTIMATION command set to MAXEVAL=0 in NONMEM.
Individual PK parameters and individual PK profiles of enflicoxib and the pyrazol metabolite were estimated for each dog.
Finally, the Bayesian approach enabled the estimation of the main individual PK parameters of enflicoxib and the pyrazol metabolite. Using these individual PK parameters, predicted profiles for each animal were estimated, allowing the calculation of the derived exposure parameters, such as Cmax, Cmin, AUCτ, and T1/2 in all treated dogs. The distribution and the mean estimates of enflicoxib and the pyrazol metabolite PK parameters at selected time points are depicted in Supplementary Figures S3, S4, respectively.

[3] = design: method as in PMID 34160092; conditions: previously validated method, cited from earlier work
[4] = overdose study, repeated weekly administrations, Beagle dogs; cited from earlier work
[5] = design: method as in PMID 34854245; conditions: popPK model, cited from earlier work
[6] = design: method as in PMID 34160092; conditions: Beagle dogs, oral enflicoxib; cited from earlier work
[7] = weeks 12–26, Bayesian predicted profiles
[8] = metabolite, typical value at 9.9 kg

NS(=O)(=O)c1ccc(-n2nc(C(F)(F)F)cc2-c2ccc(F)cc2)cc1 [Mavacoxib]
Number of animals presenting AEs (%): Emesis or nausea (canine osteoarthritis; AEs classified A, B or O): 4 (6.9)
Emesis and nausea: Number of events (canine osteoarthritis; AEs related to the GI system): 6
Diarrhoea / pasty stools: Duration range (canine osteoarthritis): 1 to 4 days
Diarrhoea / pasty stools: Mean duration (canine osteoarthritis): 2 days
Diarrhoea / pasty stools: Number of events (canine osteoarthritis): 3
Diarrhoea / pasty stools: Treatment needed (canine osteoarthritis): 0
Emesis and nausea: Mean duration (canine osteoarthritis): 4.2 days
Emesis and nausea: Treatment needed (canine osteoarthritis): 2
Number of animals presenting AEs (%): Abdominal pain (canine osteoarthritis): 0
Number of animals presenting AEs (%): Acute renal failure (canine osteoarthritis): 1 (1.7)
Number of animals presenting AEs (%): Apathy (canine osteoarthritis): 0
Number of animals presenting AEs (%): Constipation (canine osteoarthritis): 1 (1.7)
Number of animals presenting AEs (%): Diarrhoea or pasty stools (canine osteoarthritis): 3 (5.2)
Number of animals presenting AEs (%): Increased salivation (canine osteoarthritis): 0
Number of animals presenting AEs (%): Polydipsia (canine osteoarthritis): 0
Number of animals presenting AEs (%): Total (canine osteoarthritis): 6 (10.3)
Number of animals presenting AEs (%): Weight loss (canine osteoarthritis): 0
Emesis and nausea: Duration range (canine osteoarthritis; upper end one animal): 1 to 14 days

NS(=O)(=O)c1ccc(-n2nc(C(F)(F)F)cc2-c2ccc(F)cc2F)cc1 [Pyrazol metabolite]
Mean plasma level ([1]; day 44 (2 days after 7th weekly administration), N=75): 2,105.6 ng/mL
Max plasma level ([1]; day 44, N=75): 4,728.5 ng/mL
Min plasma level ([1]; day 44, N=75): 2.5 ng/mL
Probability (%) concentration < 10 ng/mL ([1]; day 44, N=75): 4.0%
Probability (%) concentration < LOQ ([1]; day 44, N=75): 4.0%
Probability (%) concentration < 10 ng/mL ([1]; day 44, N=75, listed as pyrazol metabolite): 4%
Mean plasma level ([1]; day 93 (premature study termination), N=2): 3,928.8 ng/mL
Max plasma level ([1]; day 93, N=2): 5,029.0 ng/mL
Min plasma level ([1]; day 93, N=2): 2,828.5 ng/mL
Probability (%) concentration < 10 ng/mL ([1]; day 93, N=2): 0.0%
Probability (%) concentration < LOQ ([1]; day 93, N=2): 0.0%
Mean plasma level ([1]; day 189 (trough after 27th weekly administration), N=65): 2,317.4 ng/mL
Max plasma level ([1]; day 189, N=65): 7,541.8 ng/mL
Min plasma level ([1]; day 189, N=65): 2.5 ng/mL
Probability (%) concentration < 10 ng/mL ([1]; day 189, N=65): 4.6%
Probability (%) concentration < LOQ ([1]; day 189, N=65): 1.5%
Probability (%) concentration < 10 ng/mL ([1]; day 189, N=65, listed as pyrazol metabolite): 5%
Time-dependent pharmacokinetics or over-accumulation ([2]; 6 months of weekly treatment): no evidence of time-dependent pharmacokinetics or over-accumulation
Time to PK steady-state ([2]; weekly treatment): 10–12 weeks
AUCτ [2, 7]: 16,742 ng/ml·day
Cmax [2, 7]: ~ 2,490 ng/mL
Cmin [2, 7]: 2,243 ng/mL
Stability in dog plasma ([3]; following 4 freeze–thaw cycles): stable
Stability in dog plasma ([3]; nominally −20 °C for 402 days): stable
Stability in dog plasma ([3]; room temperature for 4 h): stable
Long-term stability in dog plasma samples ([3]; stored at −20 °C): ≥ 402 days
Dose proportionality of pharmacokinetics [4]: dose-proportional pharmacokinetics
IIV of CLM/F (apparent clearance) ([5]; interindividual variability as % CV): 31%
Residual variability ([5]; log error model, % CV): 20%
CLM/F = θ7·(WGT/9.9)^0.75, θ7 estimate (apparent clearance) [5, 8]: 0.111 L/h
VM/F = θ4·(WGT/9.9)^1.0, θ4 estimate (apparent volume of distribution, central compartment) [5, 8]: 6.59 L
mean terminal elimination half-life (t 1/2) [6]: 17 days
